Source: US9572347B2, “Method for inactivating a virus” (THE UNIVERSITY OF TOKYO, priority 2009, dated 2017)

Test system: Qβ phage (NBRC 20012)
Assay: phage inactivation ability test on sample-coated glass plate (Example 1 method)
Type: cell-based
Conditions: same copper ion ratio, contact of 30 minutes, FIG. 2

## [Cu+].[I-] [CuI, cuprous iodide]
  phage inactivation effect: high phage inactivation effect

## cupric sulfide [CuS, reference compound]
  phage inactivation effect: almost no inactivation effect

## cuprous sulfide [Cu2S]
  phage inactivation effect: high phage inactivation effect

## [Cl][Cu] [CuCl, cuprous chloride]
  phage inactivation effect: almost the same phage inactivation ability as that of cuprous oxide
